In patent US20090117654A1, “MEDIUM FOR CULTURING HEM[…] AND A METHOD OF CULTURING HEM[…]” (SAMSUNG ELECTRONICS CO., LTD., priority 2006, published 2009):

Key:
bone marrow cells [1] = assay: Proliferation of bone marrow cells in serum-free basal medium including IL-3; format: cell-based, human; conditions: for proliferation of bone marrow cells, times more than the control medium including IL-3: 2 week culture
Procedure: Effects of BAPN on proliferation of bone marrow cells in serum-free basal medium including IL-3 which induces divisions of hematopoietic stem cells were inspected.
A bone marrow monocyte (Catalog number ARM07F) was purchased from Stem Cell Technology Co., Ltd. The bone marrow monocyte was obtained from a normal person, and CD34+ cells accounted for 1.6% of the total monocytes. The bone marrow cells were maintained in a maintaining medium. The maintaining medium was a IMDM including 50 ng/ml of SCF, 50 ng/ml of IL-6, 50 ng/ml of TPO, 50 ng/ml of FL, 10 μg/ml of recombinant human insulin, 100 μg/ml of bovine serum albumin (BSA), 200 μg/ml of human transferrin, 0.1 mM of 2-mercaptoethanol, and 2 mM of L-glutamine.
(§1) 100 μl of the basal medium with 20 μg/ml of IL-3, and 100 μl of the basal medium with 20 μg/ml of IL-3 and 100 μg/ml of BAPN were placed in each well of a 24 well plate, bone marrow cells were inoculated onto the media in the concentration of 1×10^5 cell/ml, and cultured for two weeks. The medium was exchanged every week. After the 2 week culture, adhesive cells were detached from the surface through trypsin treatment and the final cell concentration including floating cells was measured using a hemacytometer. In addition, the bottom of the 24 well plate was coated with collagen IV or fibronectin, and the effects of collagen IV or fibronectin were measured at the same time. In the coating, coating materials were dissolved to the concentration of from 5 to 50 μg/ml, the mixture was poured into the 24 wells to the amount of from 1 to 10 μg/cm^2 and reacted for one hour at room temperature.

bone marrow cells [2] = assay: Proliferation of bone marrow cells in serum-free basal medium; format: cell-based, human; conditions: for proliferation of bone marrow cells, times more than the control medium: 100 μg/ml BAPN, two week culture
From the text: Effects of β-aminopropionitrile (hereinafter referred to as BAPN) on proliferation of bone marrow cells in serum-free medium were inspected. The bone marrow cells used in Example 1 mostly consists of hematopoietic cells and is a population of cells including hematopoietic cells.
First, proliferations of bone marrow cells were inspected in a serum-free medium in the presence and absence of fibronectin and collagen IV which are extracellular matrix that is known to influence proliferation of bone marrow cells.
A bone marrow monocyte (Catalog number ARM07F) was purchased from Stem Cell Technology Co., Ltd. The bone marrow mononuclear cells was obtained from a normal person, and CD34+ cells accounted for 1.6% of the cells. The bone marrow cells were maintained in a maintenance medium. The maintenance medium was a IMDM including 50 ng/ml of SCF, 50 ng/ml of IL-6, 50 ng/ml of TPO, 50 ng/ml of FL, 10 μg/ml of recombinant human insulin, 100 μg/ml of bovine serum albumin (BSA), 200 μg/ml of human transferrin, 0.1 mM of 2-mercaptoethanol, and 2 mM of L-glutamine.
as §1, with “the basal medium, and 100” for “the basal medium with 20 μg/ml of IL-3, and 100”, “medium with 100 μg/ml” for “medium with 20 μg/ml of IL-3 and 100 μg/ml”, “After the two week culture,” for “After the 2 week culture,”, “same time. The coating materials” for “same time. In the coating, coating materials”

Structure (SMILES): N#CCCN [BAPN, β-aminopropionitrile]
- proliferation of bone marrow cells, times more than the control medium including IL-3 (bone marrow cells [1]; 100 μg/ml BAPN with IL-3, collagen-coated 24 well plate): 2.6 times
- proliferation of bone marrow cells, times more than the control medium including IL-3 (bone marrow cells [1]; 100 μg/ml BAPN with IL-3, fibronectin-coated 24 well plate): 2.0 times
- proliferation of bone marrow cells, times more than the control medium including IL-3 (bone marrow cells [1]; 100 μg/ml BAPN with IL-3, uncoated 24 well plate): 3.1 times
- effect on proliferation of bone marrow cells (bone marrow cells [1]; with or without extracellular matrix coating, with or without cytokine (IL-3)): promoted the proliferation of bone marrow cells
- proliferation of bone marrow cells, times more than the control medium (bone marrow cells [2]; collagen-coated 24 well plate): 5.1 times
- proliferation of bone marrow cells, times more than the control medium (bone marrow cells [2]; fibronectin-coated 24 well plate): 12.1 times
- proliferation of bone marrow cells, times more than the control medium (bone marrow cells [2]; uncoated 24 well plate): 5.4 times
- effect on proliferation of bone marrow cells (bone marrow cells [2]; whether or not the culture vessel was coated with extracellular matrix): promoted the proliferation of bone marrow cells
